#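 Interpolation was linear, between the two tested concentrations surrounding the appropriate level; five concentrations were tested over 48 hours in 96-well plates. At the GI50, growth is halved.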 Calls of active or inactive are those of the source. Rule as the data show it: active = GI50 up to about 1.1 µM and inactive = higher.
# Columns and labels:
# Test in all cases: NCI anticancer screen, dose series, 48 h
# ACHN = test system: ACHN
# HCC 2998 = test system: HCC 2998
# HCT-116 = test system: HCT-116
# HOP-92 = test system: HOP-92
# Hs-578T = test system: Hs-578T
# K562 = test system: K562
# MCF7 = test system: MCF7
# Malme-3M = test system: Malme-3M
# NCI-H522 = test system: NCI-H522
# OVCAR-3 = test system: OVCAR-3
# OVCAR-4 = test system: OVCAR-4
# SF-268 = test system: SF-268
# SF-539 = test system: SF-539
# SK-MEL-28 = test system: SK-MEL-28
# SK-MEL-2 = test system: SK-MEL-2
# SK-OV-3 = test system: SK-OV-3
# SNB-75 = test system: SNB-75
# SR = test system: SR
# TK-10 = test system: TK-10
# UACC-257 = test system: UACC-257
SMILES,GI50 (ACHN),GI50 (HCC 2998),GI50 (HCT-116),GI50 (HOP-92),GI50 (Hs-578T),GI50 (K562),GI50 (MCF7),GI50 (Malme-3M),GI50 (NCI-H522),GI50 (OVCAR-3),GI50 (OVCAR-4),GI50 (SF-268),GI50 (SF-539),GI50 (SK-MEL-28),GI50 (SK-MEL-2),GI50 (SK-OV-3),GI50 (SNB-75),GI50 (SR),GI50 (TK-10),GI50 (UACC-257)
COc1cc(OC)c(OC)cc1/C=N/N=C(\N)NO,56.2 µM (inactive),> 100 µM (inactive),> 100 µM (inactive),77.6 µM (inactive),> 100 µM (inactive),88.7 µM (inactive),> 100 µM (inactive),> 100 µM (inactive),> 100 µM (inactive),> 100 µM (inactive),> 100 µM (inactive),> 100 µM (inactive),> 100 µM (inactive),> 100 µM (inactive),99.8 µM (inactive),> 100 µM (inactive),21.9 µM (inactive),> 100 µM (inactive),> 100 µM (inactive),> 100 µM (inactive)
O=C1CC(=O)NC(NN2C(=O)CSC2c2ccccc2)=N1 (centres undefined),> 100 µM (inactive),> 100 µM (inactive),> 100 µM (inactive),55.8 µM (inactive),> 100 µM (inactive),> 100 µM (inactive),> 100 µM (inactive),> 100 µM (inactive),> 100 µM (inactive),> 100 µM (inactive),> 100 µM (inactive),> 100 µM (inactive),> 100 µM (inactive),> 100 µM (inactive),> 100 µM (inactive),> 100 µM (inactive),30.9 µM (inactive),> 100 µM (inactive),> 100 µM (inactive),> 100 µM (inactive)
C=CC1=C(C)c2cc3[nH]c(c4c5nc(cc6[nH]c(cc1n2)c(C=O)c6CC)C(C)=C5C(=O)[C@@H]4C(=O)OC)[C@@H](CCC(=O)O)[C@@H]3C,46 µM (inactive),> 100 µM (inactive),65.5 µM (inactive),> 100 µM (inactive),> 100 µM (inactive),51.3 µM (inactive),> 100 µM (inactive),> 100 µM (inactive),30.8 µM (inactive),–,> 100 µM (inactive),24.4 µM (inactive),39.6 µM (inactive),> 100 µM (inactive),> 100 µM (inactive),> 100 µM (inactive),2.54 µM (inactive),10 µM (inactive),> 100 µM (inactive),83.9 µM (inactive)
COC(=O)C(C)(C)[C@@H]1OC(=O)N(S(=O)(=O)c2c(C)cc(C)cc2C)[C@H]1C(C)C,> 100 µM (inactive),> 100 µM (inactive),52.8 µM (inactive),23.1 µM (inactive),43 µM (inactive),> 100 µM (inactive),75.9 µM (inactive),> 100 µM (inactive),> 100 µM (inactive),89.9 µM (inactive),98.2 µM (inactive),> 100 µM (inactive),> 100 µM (inactive),> 100 µM (inactive),95.7 µM (inactive),> 100 µM (inactive),41 µM (inactive),75.7 µM (inactive),> 100 µM (inactive),60.3 µM (inactive)
Cc1ccc(C(=O)/C=C(\O)C(=O)NN=C(c2ccccc2)c2ccccc2)cc1,45 µM (inactive),80 µM (inactive),36.5 µM (inactive),28 µM (inactive),56.9 µM (inactive),17.3 µM (inactive),54.6 µM (inactive),> 100 µM (inactive),–,> 100 µM (inactive),63.1 µM (inactive),> 100 µM (inactive),> 100 µM (inactive),> 100 µM (inactive),> 100 µM (inactive),> 100 µM (inactive),82.4 µM (inactive),27.2 µM (inactive),> 100 µM (inactive),> 100 µM (inactive)
CC(C)(C)OC(=O)N[C@H]1CCN(C2CCCCC2)C1=O,> 100 µM (inactive),> 100 µM (inactive),> 100 µM (inactive),> 100 µM (inactive),> 100 µM (inactive),> 100 µM (inactive),> 100 µM (inactive),–,–,–,–,> 100 µM (inactive),> 100 µM (inactive),> 100 µM (inactive),> 100 µM (inactive),> 100 µM (inactive),> 100 µM (inactive),> 10 µM (inactive),> 100 µM (inactive),–
Cc1c[nH]c(C(=O)O)c1-c1cccn1-c1ccc(Cl)cc1[N+](=O)[O-],> 100 µM (inactive),> 100 µM (inactive),> 100 µM (inactive),56 µM (inactive),> 100 µM (inactive),73.8 µM (inactive),69.7 µM (inactive),–,72.8 µM (inactive),11.8 µM (inactive),> 100 µM (inactive),> 100 µM (inactive),> 100 µM (inactive),> 100 µM (inactive),> 100 µM (inactive),> 100 µM (inactive),> 100 µM (inactive),99.3 µM (inactive),> 100 µM (inactive),> 100 µM (inactive)
CSC1=N/C(=C\c2c[nH]c3ccccc23)C(=O)N1,44.4 µM (inactive),21.9 µM (inactive),70.3 µM (inactive),> 100 µM (inactive),43.4 µM (inactive),75.9 µM (inactive),28.8 µM (inactive),36.1 µM (inactive),–,85.3 µM (inactive),71.4 µM (inactive),71 µM (inactive),> 100 µM (inactive),> 100 µM (inactive),35.8 µM (inactive),> 100 µM (inactive),27.7 µM (inactive),97.7 µM (inactive),66.7 µM (inactive),> 100 µM (inactive)
CCOc1cc(C2SCC(=O)N2c2ccc3c(c2)Oc2c(Cl)c4c(c(Cl)c2=N3)Oc2cc(N3C(=O)CSC3c3ccc(O)c(OCC)c3)ccc2N=4)ccc1O (centres undefined),26.6 µM (inactive),21.9 µM (inactive),18 µM (inactive),24.5 µM (inactive),73.5 µM (inactive),27 µM (inactive),33.3 µM (inactive),–,34 µM (inactive),26.3 µM (inactive),46.3 µM (inactive),21.4 µM (inactive),14.9 µM (inactive),37.8 µM (inactive),27.5 µM (inactive),–,21.4 µM (inactive),2.08 µM (inactive),41.7 µM (inactive),80.9 µM (inactive)
Cc1cc2ccccc2c[n+]1CC(O)C[n+]1cc2ccccc2cc1C,> 100 µM (inactive),> 100 µM (inactive),> 100 µM (inactive),> 100 µM (inactive),> 100 µM (inactive),> 100 µM (inactive),> 100 µM (inactive),> 100 µM (inactive),> 100 µM (inactive),51.6 µM (inactive),> 100 µM (inactive),> 100 µM (inactive),> 100 µM (inactive),> 100 µM (inactive),> 100 µM (inactive),–,> 100 µM (inactive),> 100 µM (inactive),> 100 µM (inactive),> 100 µM (inactive)
CN(N=O)N1C(=O)SCC(c2ccccc2)(c2ccccc2)C1=O,37.2 µM (inactive),89.1 µM (inactive),40.4 µM (inactive),38.9 µM (inactive),56.8 µM (inactive),65.2 µM (inactive),20.9 µM (inactive),34.1 µM (inactive),23.3 µM (inactive),37.6 µM (inactive),–,32.1 µM (inactive),21.9 µM (inactive),36.8 µM (inactive),18.9 µM (inactive),25.2 µM (inactive),25.6 µM (inactive),37.5 µM (inactive),50.2 µM (inactive),64.3 µM (inactive)
C/C(=N/OC(=O)c1cccc2c(=O)c3ccccc3[nH]c12)[C@H]1CC[C@H]2[C@@H]3CCC4=C/C(=N/OC(=O)c5cccc6c(=O)c7ccccc7[nH]c56)CC[C@]4(C)[C@H]3CC[C@]12C,16 µM (inactive),14 µM (inactive),12.5 µM (inactive),21.3 µM (inactive),27.7 µM (inactive),4.97 µM (inactive),11.2 µM (inactive),22.2 µM (inactive),12.3 µM (inactive),17.1 µM (inactive),34 µM (inactive),17 µM (inactive),15.1 µM (inactive),–,12.8 µM (inactive),27 µM (inactive),29.9 µM (inactive),3.61 µM (inactive),17.8 µM (inactive),17.1 µM (inactive)
O=C1O[C@H]2C3C4CCC(C4[C@@H]2I)[C@H]13 (some centres undefined),> 100 µM (inactive),> 100 µM (inactive),> 100 µM (inactive),> 100 µM (inactive),> 100 µM (inactive),> 100 µM (inactive),> 100 µM (inactive),> 100 µM (inactive),> 100 µM (inactive),> 100 µM (inactive),> 100 µM (inactive),> 100 µM (inactive),> 100 µM (inactive),> 100 µM (inactive),> 100 µM (inactive),–,60.3 µM (inactive),> 100 µM (inactive),> 100 µM (inactive),> 100 µM (inactive)
CN(C)CC1CCC/C(=C\c2ccc(OC(=O)c3ccc(Cl)cc3)cc2)C1=O (centres undefined),3.57 µM (inactive),9.95 µM (inactive),0.832 µM (active),2.07 µM (inactive),2.57 µM (inactive),0.912 µM (active),0.33 µM (active),2.55 µM (inactive),–,1.6 µM (inactive),2.8 µM (inactive),4.26 µM (inactive),3 µM (inactive),3.15 µM (inactive),4.31 µM (inactive),10.3 µM (inactive),4.12 µM (inactive),0.583 µM (active),1.95 µM (inactive),4.29 µM (inactive)

# — ChEMBL document CHEMBL1201862, “PubChem BioAssay data set” (2004)
